Data set [1] can be described thus: Literature concentrations detected in post-mortem cases. To be noted: conversion of cited ng/mL value.
In data set [2] the target is T1, hERG Y652A (Homo sapiens, UniProt Q12809, Y652A).
T1 construct: expressed in transfected cells; host or cells: CHO-K1 CCL-61 (ATCC), transient, co-transfected with pcDNA3-GFP
Put plainly: Manual patch-clamp (MPC) on hERG Y652A, transiently transfected CHO-K1 cells. The data set is classed as cell-based. An excerpt:
(§1) The hERG wild-type and Y652A constructs were kindly provided by Dr. Nicole Schmitt, and the eGFP-pcDNA3 construct was kindly provided by Dr. Antonios Pantazis. The S624A and S649A constructs were generated in-house from the wild-type template using the QuikChange II XL Site-Directed Mutagenesis Kit (Agilent Technologies, Santa Clara, CA, USA), in accordance with the manufacturer’s instructions. Mutagenesis primers were designed using the Agilent QuikChange Primer Design Program. Briefly, PCR amplification was performed according to the recommended cycling conditions, followed by DpnI digestion for 1 h to selectively degrade the parental (methylated) DNA template. The reaction products were then transformed into XL10-Gold ultracompetent cells. All constructs were verified by whole-plasmid sequencing (Eurofins Genomics, Germany) to confirm sequence accuracy.
(§2) Manual patch-clamp (MPC) recordings were performed 24–48 h post-transfection. Patch pipettes were pulled from borosilicate glass and had resistances of 4–7 MΩ when filled with intracellular solution. Coverslips with CHO-K1 cells were placed in a recording chamber and continuously perfused at room temperature (22–24 °C) with extracellular solution using a gravity-fed perfusion system. […] Compounds were applied to the recorded cells by a pressurized, automated OctaFlow perfusion system (ALA Scientific Instruments). […]
In general terms: In patch-clamp work, channel activity is measured electrically.

For data set [3] the following is noted: cited from earlier work.
The target in data set [4] is T2, hERG S649A (Homo sapiens, UniProt Q12809, S649A).
T2 construct: expressed in transfected cells; host or cells: CHO-K1 CCL-61 (ATCC), transient, co-transfected with pcDNA3-GFP
Put plainly: Manual patch-clamp (MPC) on hERG S649A, transiently transfected CHO-K1 cells. The data set is classed as cell-based.
From the text: as §1, §2

Data set [5] concerns the target T3, human CB1 receptor (Homo sapiens, UniProt P21554).
T3 construct: host or cells: CHO-K1 stably expressing CB1, apoaequorin and Gα16
The data set can be described thus: AequoScreen intracellular calcium release assay, CHO-K1 cells stably expressing CB1. The data set is classed as cell-based. The following applies: n ≥ 3 (JWH-030 n = 2).

Data set [6] has as its target T4, hERG S624A (Homo sapiens, UniProt Q12809, S624A).
T4 construct: expressed in transfected cells; host or cells: CHO-K1 CCL-61 (ATCC), transient, co-transfected with pcDNA3-GFP
Put plainly: Manual patch-clamp (MPC) on hERG S624A, transiently transfected CHO-K1 cells. The data set is classed as cell-based.
From the text: as §1, §2

Results on one compound are retold here after paper PMC13586173, “Synthetic cannabinoid receptor agonists inhibit the cardiac voltage-gated potassium channel hERG” (Acta Pharmacologica Sinica, 2026).

Structures are written as SMILES. pEC50, pIC50: −log10 of the molar value.

T3 sequence (P21554 whole entry): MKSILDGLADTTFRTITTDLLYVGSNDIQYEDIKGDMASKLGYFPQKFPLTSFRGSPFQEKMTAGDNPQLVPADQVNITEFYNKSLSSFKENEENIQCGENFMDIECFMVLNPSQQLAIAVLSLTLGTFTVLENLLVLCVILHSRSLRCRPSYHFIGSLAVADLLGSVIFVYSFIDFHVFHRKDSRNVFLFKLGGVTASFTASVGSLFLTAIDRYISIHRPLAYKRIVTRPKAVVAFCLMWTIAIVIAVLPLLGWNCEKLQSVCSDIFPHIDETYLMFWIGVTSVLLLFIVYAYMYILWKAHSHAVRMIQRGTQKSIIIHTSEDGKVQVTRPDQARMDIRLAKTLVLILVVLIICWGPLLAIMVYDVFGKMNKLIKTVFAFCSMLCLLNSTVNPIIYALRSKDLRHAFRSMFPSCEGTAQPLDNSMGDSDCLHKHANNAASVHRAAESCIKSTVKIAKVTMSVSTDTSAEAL
T2 sequence (Q12809 whole entry S649A): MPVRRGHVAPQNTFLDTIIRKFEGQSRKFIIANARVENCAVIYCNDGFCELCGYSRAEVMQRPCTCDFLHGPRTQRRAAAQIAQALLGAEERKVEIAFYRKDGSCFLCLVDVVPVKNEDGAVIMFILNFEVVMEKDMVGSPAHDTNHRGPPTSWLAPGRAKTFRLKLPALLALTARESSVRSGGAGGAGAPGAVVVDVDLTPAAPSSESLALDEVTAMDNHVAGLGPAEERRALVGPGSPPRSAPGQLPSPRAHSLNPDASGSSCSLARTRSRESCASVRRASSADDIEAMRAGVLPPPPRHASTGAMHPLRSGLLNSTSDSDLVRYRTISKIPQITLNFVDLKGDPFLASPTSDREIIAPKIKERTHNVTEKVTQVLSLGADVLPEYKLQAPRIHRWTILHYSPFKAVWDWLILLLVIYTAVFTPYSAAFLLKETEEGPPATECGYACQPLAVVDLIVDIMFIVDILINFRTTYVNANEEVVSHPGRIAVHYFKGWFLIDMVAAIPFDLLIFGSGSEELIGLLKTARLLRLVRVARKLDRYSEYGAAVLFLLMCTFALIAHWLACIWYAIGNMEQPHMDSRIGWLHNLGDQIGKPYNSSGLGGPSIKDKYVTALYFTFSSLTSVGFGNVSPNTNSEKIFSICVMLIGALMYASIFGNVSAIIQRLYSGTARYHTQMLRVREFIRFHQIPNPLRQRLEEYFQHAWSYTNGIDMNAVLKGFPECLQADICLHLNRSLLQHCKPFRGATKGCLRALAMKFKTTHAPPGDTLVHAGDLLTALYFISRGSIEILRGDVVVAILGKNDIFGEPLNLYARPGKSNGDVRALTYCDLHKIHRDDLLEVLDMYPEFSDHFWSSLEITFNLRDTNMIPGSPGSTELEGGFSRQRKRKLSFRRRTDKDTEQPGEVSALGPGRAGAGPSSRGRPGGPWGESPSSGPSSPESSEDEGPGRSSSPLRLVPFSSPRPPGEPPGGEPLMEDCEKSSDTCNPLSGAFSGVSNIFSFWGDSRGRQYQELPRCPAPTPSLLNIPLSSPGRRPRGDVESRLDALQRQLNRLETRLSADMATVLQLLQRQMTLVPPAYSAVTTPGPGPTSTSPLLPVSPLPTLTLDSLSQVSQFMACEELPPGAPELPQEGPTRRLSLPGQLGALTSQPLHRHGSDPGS
T4 sequence (Q12809 whole entry S624A): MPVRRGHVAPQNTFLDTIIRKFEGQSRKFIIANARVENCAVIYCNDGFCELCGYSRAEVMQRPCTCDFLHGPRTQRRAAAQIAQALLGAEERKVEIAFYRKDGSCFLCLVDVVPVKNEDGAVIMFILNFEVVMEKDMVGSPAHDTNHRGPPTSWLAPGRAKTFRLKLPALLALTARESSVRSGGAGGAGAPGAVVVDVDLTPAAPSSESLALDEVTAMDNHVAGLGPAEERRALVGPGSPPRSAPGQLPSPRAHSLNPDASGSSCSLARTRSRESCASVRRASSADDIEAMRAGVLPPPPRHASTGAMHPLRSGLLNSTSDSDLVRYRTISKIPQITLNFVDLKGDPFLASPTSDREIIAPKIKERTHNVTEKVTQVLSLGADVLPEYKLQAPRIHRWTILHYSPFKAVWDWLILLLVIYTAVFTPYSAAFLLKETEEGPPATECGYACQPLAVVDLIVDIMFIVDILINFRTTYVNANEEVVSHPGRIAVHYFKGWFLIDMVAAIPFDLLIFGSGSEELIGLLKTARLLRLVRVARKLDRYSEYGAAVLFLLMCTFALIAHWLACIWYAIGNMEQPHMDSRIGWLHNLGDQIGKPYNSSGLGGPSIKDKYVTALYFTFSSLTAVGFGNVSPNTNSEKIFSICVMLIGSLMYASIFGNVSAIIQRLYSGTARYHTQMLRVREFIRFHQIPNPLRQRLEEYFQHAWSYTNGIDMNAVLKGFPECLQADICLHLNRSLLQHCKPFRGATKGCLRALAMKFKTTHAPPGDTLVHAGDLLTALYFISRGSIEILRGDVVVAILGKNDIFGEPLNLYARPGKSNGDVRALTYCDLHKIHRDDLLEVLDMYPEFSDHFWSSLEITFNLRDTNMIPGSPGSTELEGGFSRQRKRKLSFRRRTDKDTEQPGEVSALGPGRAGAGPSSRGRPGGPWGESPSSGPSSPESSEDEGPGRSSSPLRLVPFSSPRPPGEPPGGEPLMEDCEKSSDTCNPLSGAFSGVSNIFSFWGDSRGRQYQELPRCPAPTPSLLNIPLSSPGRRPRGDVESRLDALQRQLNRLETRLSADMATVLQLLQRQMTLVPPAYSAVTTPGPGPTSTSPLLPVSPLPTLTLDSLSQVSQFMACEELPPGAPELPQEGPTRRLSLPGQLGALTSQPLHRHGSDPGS
T1 sequence (Q12809 whole entry Y652A): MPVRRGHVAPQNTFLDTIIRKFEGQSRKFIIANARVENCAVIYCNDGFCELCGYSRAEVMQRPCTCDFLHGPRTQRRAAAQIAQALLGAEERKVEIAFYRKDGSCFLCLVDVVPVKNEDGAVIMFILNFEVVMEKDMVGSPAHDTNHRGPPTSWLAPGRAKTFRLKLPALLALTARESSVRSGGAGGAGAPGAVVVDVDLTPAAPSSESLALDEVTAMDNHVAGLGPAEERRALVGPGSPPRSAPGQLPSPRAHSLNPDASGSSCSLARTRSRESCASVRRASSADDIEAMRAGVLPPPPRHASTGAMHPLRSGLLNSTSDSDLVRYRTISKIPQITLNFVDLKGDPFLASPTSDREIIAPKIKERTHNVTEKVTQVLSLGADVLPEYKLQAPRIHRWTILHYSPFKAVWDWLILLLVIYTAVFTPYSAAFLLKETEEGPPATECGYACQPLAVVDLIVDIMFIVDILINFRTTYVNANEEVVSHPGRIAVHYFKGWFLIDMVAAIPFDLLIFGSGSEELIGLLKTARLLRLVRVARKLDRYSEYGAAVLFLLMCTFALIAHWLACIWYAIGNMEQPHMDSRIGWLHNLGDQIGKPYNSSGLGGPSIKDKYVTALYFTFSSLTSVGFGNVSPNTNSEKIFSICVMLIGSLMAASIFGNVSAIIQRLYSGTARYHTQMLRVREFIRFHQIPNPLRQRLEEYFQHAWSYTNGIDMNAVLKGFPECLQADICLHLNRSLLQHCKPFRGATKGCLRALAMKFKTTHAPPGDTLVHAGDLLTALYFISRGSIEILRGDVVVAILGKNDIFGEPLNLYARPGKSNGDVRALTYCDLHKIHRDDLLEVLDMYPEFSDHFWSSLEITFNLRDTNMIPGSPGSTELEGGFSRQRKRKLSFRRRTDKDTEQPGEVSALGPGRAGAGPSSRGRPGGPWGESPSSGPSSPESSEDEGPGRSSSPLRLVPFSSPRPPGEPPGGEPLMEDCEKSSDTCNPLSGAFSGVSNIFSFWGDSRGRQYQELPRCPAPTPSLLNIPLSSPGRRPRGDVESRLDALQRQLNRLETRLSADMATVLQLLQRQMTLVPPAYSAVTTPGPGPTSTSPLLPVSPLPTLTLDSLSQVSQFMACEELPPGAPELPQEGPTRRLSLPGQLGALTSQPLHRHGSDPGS

The term pIC50 denotes −log10 of the IC50, conventionally taken in molar units. A higher pIC50 goes with a low IC50. For orientation: pEC50 means the EC50 on a negative log10 scale, so that one unit is a factor of ten. As to `COC(=O)C(NC(=O)c1nn(CCCCCF)c2ccccc12)C(C)(C)C` (stereo not drawn) [5F-MDMB-PINACA, methyl 2-{[1-(5-fluoropentyl)-1H-indazole-3-carbonyl]amino}-3,3-dimethylbutanoate], the “concentration in post-mortem cases, blood or serum (converted)” value in data set [1] (blood or serum samples) was “≈ 5.3 nM”. Moreover, the “concentration in post-mortem case, heart muscle (converted)” value in data set [1] (heart muscle) is “≈ 4.8 nM”. Moreover, the pIC50 is 5.11 in data set [2], 4.78 in data set [4] and 5.02 in data set [6]. Besides, the “concentration in post-mortem cases, blood or serum” value in data set [3] (blood or serum samples) is listed as “approximately 2 ng/mL”. For the same compound, the “concentration in post-mortem case, heart muscle” value in data set [3] (heart muscle) is recorded as 1.82 ng/mL. Besides, in data set [5] (CB1 receptor Potency EC50, normalized to median EC50 of JWH-018), the pEC50 was 8.05. In addition, in data set [5] (normalized to maximum of JWH-018), the “CB1 receptor Efficacy Emax” value is given as 131 % JWH-018.
